Where a SMILES comes first, the peptide text is derived from it. Bridges are numbered along the chain shown (N, C = ends). [ ]: non-standard residue; d: D form. Tyr(3-OMe) = COc1cc(C[C@H](N)C(=O)O)ccc1O; Phe(4-F) = N[C@@H](Cc1ccc(F)cc1)C(=O)O; Nle = CCCC[C@H](N)C(=O)O
Columns and labels:
[1] = tested on: guinea pigs; assay: In vivo bronchodilator activity by tracheal instillation against histamine challenge; design: species or system guinea pig; conditions: anesthetized male guinea pigs, inhibition of histamine (i.v.)-induced rise in tracheal pressure
Method: The in vivo bronchodilator activity of VIP and VIP analogs in guinea pigs was assessed by the tracheal instillation route of administration. This technique utilized male guinea pigs (Hartley strain, Charles River) weighing 400-600 g. Animals were anesthetized with urethane (2 g/kg) intraperitoneally and a polyethylene cannula was inserted into the jugular vein for intraveneous drug administration.
The animals were tracheotomized and dosing solutions of distilled water or test compound dissolved in distilled water were administered into the trachea, approximately three-quarters the distance to the carina with a pipette. The concentration of the dosing solution was adjusted to deliver a constant volume of […]. The animals were placed supine for one minute to aid drug delivery to the lung. One minute later, spontaneous breathing was arrested with succinylcholine chloride (1.2 mg/kg) administered intraveneously, and the animals were ventilated with a HARVARD Model 680 small animal respirator set at 40 breaths/min and 4.0 cm^3 stroke volume. The animals were challenged with a maximal constrictory dose of histamine ([…], i.v.) and tracheal pressure (cm of water) was recorded from a STATHAM pressure transducer (P 32 AA).
The change in tracheal pressure was averaged for at least 3 control and 3 drug-treated animals and percent inhibition was calculated. The relative potency of compounds administered by the instillation route was determined by administering various doses of test compound and calculating the median effective dose (ED50 value). The ED50 was determined from log dose-response curves generated by at least 3 doses that caused inhibitory effects between 10% and 90%. The correlation coefficients for the regression line of each compound was always greater than 0.95.
For determination of the time course of inhibition for various compounds, the time between administration of compound and challenge with histamine was varied. The time course of activity was calculated as the time when inhibition decreased to 40%.
The results summarized in Table II show the in vivo bronchodilator activity of the VIP analogs in comparison to native VIP.

[2] = tested on: guinea pig tracheal smooth muscle; assay: Tracheal relaxant activity of VIP analogs on isolated guinea pig tracheal rings; assay type: cell-based; conditions: cumulative concentration response, relaxation as % of maximum response to VIP (10^-6 M=100%), three tissues pooled, linear regression
Method: The relaxant activity of the VIP analogs were studied in a model utilizing guinea pig trachea. [Wasserman, M. A. et al., in Vasoactive Intestinal Peptide, S. I. Said, ed., Raven Press, New York 1982, pp 177-184] All tissues were taken from male albino guinea pig weighing 400-600 g, anesthetized with urethane (2 g/kg, i.p.). After exanguination, the trachea were removed and divided into four ring segments (3 mm length). Each ring was suspended by 30 gauge stainless steel wires in a 10 mL jacketed tissue bath and attached via 4-0 silk thread to a GRASS force displacement transducer (model FT03C, Grass Instruments Co., Quincy, Mass.), for isometric recording of tension. The smooth muscle was bathed in modified Krebs solution of the following composition: NaCl, 120 mM; KCl, 4.7 mM; CaCl2, 2.5 mM; MgSO4.7H2 O, 1.2 mM; NaHCO3, 25 mM; K2 HPO4 monobasic, 1.2 mM; and dextrose, 10 mM. Tissue baths were maintained at 37° C. and constantly bubbled with 95% O2 and 5% CO2. Responses were recorded on an 8 channel and a 4 channel HEWLETT-PACKARD (model 7702B and 7754A, respectively) recorder (Hewlett- Packard, Paramus, N.J.). Tracheal rings were placed under a resting tension of 1.5 g which was determined to be at or near optimal in preliminary experiments. Frequent readjustments of tension were required during the 60 minute stabilization period which followed. Tissues were rinsed at 15 minute intervals.
Cumulative concentration response curves were obtained for each tissue by successive […] increases in the bath concentration of VIP or VIP analogs according to the method of VanRossum [Arch. Int. Pharmacodyn., 143, 299-330 (1963)]. Only one cumulative dose response curve was obtained on a single tissue. To minimize variability between tissues, relaxant responses were expressed as a percentage of the maximum response obtained to VIP (10^-6 M=100%) added at the end of each concentration response experiment. Responses obtained from three tissues were pooled and EC50 values were determined by linear regression.
The results summarized in Table I show the tracheal relaxant activity of the VIP analogs in comparison to native VIP.

CCCC[C@H](NC(=O)[C@H](CCC(N)=O)NC(=O)[C@H](CCCCN)NC(=O)[C@H](CCCNC(=N)N)NC(=O)[C@H](CC(C)C)NC(=O)[C@H](CCCCN)NC(=O)[C@@H](NC(=O)[C@H](Cc1ccc(O)cc1)NC(=O)[C@H](CC(N)=O)NC(=O)[C@H](CC(=O)O)NC(=O)[C@@H](NC(=O)[C@H](Cc1ccccc1)NC(=O)[C@@H](NC(=O)[C@H](C)NC(=O)[C@H](CC(=O)O)NC(=O)[C@H](CO)NC(=O)[C@H](Cc1c[nH]cn1)NC(C)=O)C(C)C)[C@@H](C)O)[C@@H](C)O)C(=O)N[C@@H](C)C(=O)N[C@@H](C)C(=O)N[C@@H](CCCCN)C(=O)N[C@H]1CCCCNC(=O)C[C@@H](C(=O)N[C@H](C(=O)N[C@@H](CC(C)C)C(=O)N[C@H](C(N)=O)[C@@H](C)O)C(C)C)NC(=O)[C@H](CC(N)=O)NC(=O)[C@H](CC(C)C)NC(=O)[C@H](Cc2ccc(O)c(OC)c2)NC1=O [SEQ ID NO:55, Ac-[Lys^12,Nle^17,Ala^19,m-OCH3 -Tyr^22,Asp^25,Val^26,Thr^28]-VIP cyclo (Lys^21 →Asp^25)] (Ac-HSDAVFTDNYTKLRKQ[Nle]AAKK[Tyr(3-OMe)]LNDVLT-NH2; lactam 21-25)
Bronchodilator activity of VIP analogs in guinea pigs, ED50 [1]: 0.14 μg | EC50 [2]: 0.31 nM

CCCC[C@H](NC(=O)[C@H](CCC(N)=O)NC(=O)[C@H](CCCCN)NC(=O)[C@H](CCCNC(=N)N)NC(=O)[C@H](CC(C)C)NC(=O)[C@H](CCCCN)NC(=O)[C@@H](NC(=O)[C@H](Cc1ccc(O)cc1)NC(=O)[C@H](CC(N)=O)NC(=O)[C@H](CC(=O)O)NC(=O)[C@@H](NC(=O)[C@H](Cc1ccc(F)cc1)NC(=O)[C@@H](NC(=O)[C@H](C)NC(=O)[C@H](CC(=O)O)NC(=O)[C@H](CO)NC(=O)[C@H](Cc1c[nH]cn1)NC(C)=O)C(C)C)[C@@H](C)O)[C@@H](C)O)C(=O)N[C@@H](C)C(=O)N[C@@H](C)C(=O)N[C@@H](CCCCN)C(=O)N[C@H]1CCCCNC(=O)C[C@@H](C(=O)N[C@H](C(=O)N[C@@H](CC(C)C)C(=O)N[C@H](C(N)=O)[C@@H](C)O)C(C)C)NC(=O)[C@H](CC(N)=O)NC(=O)[C@H](CC(C)C)NC(=O)[C@H](Cc2ccc(O)cc2)NC1=O [SEQ ID NO:49, Ac-[p-F-Phe^6,Lys^12,Nle^17,Ala^19,Asp^25,Val^26,Thr^28]-VIP cyclo (Lys^21 →Asp^25)] (Ac-HSDAV[Phe(4-F)]TDNYTKLRKQ[Nle]AAKKYLNDVLT-NH2; lactam 21-25)
Bronchodilator activity of VIP analogs in guinea pigs, ED50 [1]: 0.26 μg | EC50 [2]: 0.39 nM

CCCC[C@H](NC(=O)[C@H](CCC(N)=O)NC(=O)[C@H](CCCCN)NC(=O)[C@H](CCCNC(=N)N)NC(=O)[C@H](CC(C)C)NC(=O)[C@H](CCCCN)NC(=O)[C@@H](NC(=O)[C@H](Cc1ccc(O)cc1)NC(=O)[C@H](CC(N)=O)NC(=O)[C@H](C)NC(=O)[C@@H](NC(=O)[C@H](Cc1ccccc1)NC(=O)[C@@H](NC(=O)[C@H](C)NC(=O)[C@H](CC(=O)O)NC(=O)[C@H](CO)NC(=O)[C@H](Cc1c[nH]cn1)NC(C)=O)C(C)C)[C@@H](C)O)[C@@H](C)O)C(=O)N[C@@H](C)C(=O)N[C@@H](C)C(=O)N[C@@H](CCCCN)C(=O)N[C@H]1CCCCNC(=O)C[C@@H](C(=O)N[C@@H](CC(C)C)C(=O)N[C@@H](CCCCN)C(=O)N[C@@H](CCCCN)C(N)=O)NC(=O)[C@H](C)NC(=O)[C@H](CC(C)C)NC(=O)[C@H](Cc2ccc(O)cc2)NC1=O [SEQ ID NO:59, Ac-[Ala^8,Lys^12,Nle^17,Ala^19,Ala^24,Asp^25,Leu^26,Lys^27,28]-VIP cyclo (Lys^21 →Asp^25)] (Ac-HSDAVFTANYTKLRKQ[Nle]AAKKYLADLKK-NH2; lactam 21-25)
Bronchodilator activity of VIP analogs in guinea pigs, ED50 [1]: 0.17 μg | EC50 [2]: 1.1 nM
